This assay relates to MX-1 breast xenograft, intrarenal, nude mice, tumor weight. Put plainly: NCI In Vivo Anticancer Drug Screen. Data for tumor model Human Mammary Carcinoma MX-1 Xenograft (intrarenal inoculation) in NU/NU BALB/C (nude) mice. The following applies: endpoint: mean tumor weight change, higher = larger tumour. The method in brief:
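Antitumor activity is expressed as a T/C ratio. The treated group's tumor size or survival is compared against the vehicle-treated control group in mice bearing transplanted tumors.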

Setting [1] is: dose: 150.0 mg/kg/injection, schedule: Q04DX003 (ip), vehicle: Klucel (hydroxypropylcellulose) (HPC).

Where “and” joins values, the source holds several entries; their conditions need not be identical. Equal values may be shown once. Records with an inconclusive call do not appear.

Consider `Cc1ccc(C2NC(=O)c3ccccc3N2)s1` (configuration not stated), for which the T/C is 105 % of control (dose: 600.0 mg/kg/injection, schedule: Q04DX003 (sc), vehicle: Klucel (hydroxypropylcellulose) (HPC)); 106 % of control (dose: 1200.0 mg/kg/injection, schedule: Q04DX003 (sc), vehicle: Klucel (hydroxypropylcellulose) (HPC)); 118 % of control (dose: 2400.0 mg/kg/injection, schedule: Q04DX003 (sc), vehicle: Klucel (hydroxypropylcellulose) (HPC)); 97 % of control (dose: 4800.0 mg/kg/injection, schedule: Q04DX003 (sc), vehicle: Klucel (hydroxypropylcellulose) (HPC)).
For `CCOC(=O)Nc1cc2c(c(N)n1)N=C(c1ccccc1)CO2`, the T/C runs as follows: (dose: 150.0 mg/kg/injection, schedule: Q04DX003 (ip), vehicle: saline with Tween-80) 73 % of control; (dose: 300.0 mg/kg/injection, schedule: Q04DX003 (ip), vehicle: saline with Tween-80) 80 % of control; (dose: 600.0 mg/kg/injection, schedule: Q04DX003 (ip), vehicle: saline with Tween-80) 51 % of control; (dose: 1200.0 mg/kg/injection, schedule: Q04DX003 (ip), vehicle: saline with Tween-80) 68 % of control.
As for `CCN(CC)CCOCCO`, the T/C (dose: 600.0 mg/kg/injection, schedule: Q04DX003 (sc), vehicle: saline) is 121 % of control.
Regarding `CC(=O)C(Cl)C(=O)c1c(C)[nH]n(-c2ccccc2)c1=O` (configuration not stated), the T/C under setting [1] is 103 % of control.
Take `O=C1C2=C(Nc3cc([N+](=O)[O-])ccc3N2)OC1c1ccccn1` (configuration not stated): the T/C reads like this: (dose: 50.0 mg/kg/injection, schedule: Q04DX003 (ip), vehicle: Klucel (hydroxypropylcellulose) (HPC)) 87 % of control; (dose: 100.0 mg/kg/injection, schedule: Q04DX003 (ip), vehicle: Klucel (hydroxypropylcellulose) (HPC)) 66 % of control; (dose: 200.0 mg/kg/injection, schedule: Q04DX003 (ip), vehicle: Klucel (hydroxypropylcellulose) (HPC)) 118 % of control; (dose: 400.0 mg/kg/injection, schedule: Q04DX003 (ip), vehicle: Klucel (hydroxypropylcellulose) (HPC)) 63 % of control.
On to `COc1cc(C2CC(C)(O)Oc3cc4c(cc32)OCO4)cc(OC)c1OC` (configuration not stated), for which the T/C reads like this: (dose: 25.0 mg/kg/injection, schedule: Q04DX003 (ip), vehicle: saline with Tween-80) 86 % of control; (dose: 50.0 mg/kg/injection, schedule: Q04DX003 (ip), vehicle: saline with Tween-80) 75 % of control; (dose: 100.0 mg/kg/injection, schedule: Q04DX003 (ip), vehicle: saline with Tween-80) 73 % of control and 74 % of control; (dose: 200.0 mg/kg/injection, schedule: Q04DX003 (ip), vehicle: saline with Tween-80) 46 % of control.
Consider `CO[C@H]1Nc2c(ccc(C)c2O)C(=O)N2C=C(/C=C/C(N)=O)C[C@@H]12`, for which the T/C (dose: 0.25 mg/kg/injection, schedule: Q04DX003 (sc), vehicle: saline + alcohol) was 41 % of control; the T/C (dose: 0.5 mg/kg/injection, schedule: Q04DX003 (sc), vehicle: saline + alcohol) was 12 % of control; the T/C (dose: 1.0 mg/kg/injection, schedule: Q04DX003 (sc), vehicle: saline + alcohol) was -58 % of control; the T/C (dose: 2.0 mg/kg/injection, schedule: Q04DX003 (sc), vehicle: saline + alcohol) was -98 % of control.
For `C[C@]12CC[C@H](O)CC1=CC[C@@H]1[C@@H]2CC[C@]2(C)C(=O)CC[C@@H]12`, the T/C by setting is: (dose: 300.0 mg/kg/injection, schedule: Q04DX003 (sc), vehicle: saline with Tween-80) 77 % of control; (dose: 600.0 mg/kg/injection, schedule: Q04DX003 (sc), vehicle: saline with Tween-80) 76 % of control; (dose: 1200.0 mg/kg/injection, schedule: Q04DX003 (sc), vehicle: saline with Tween-80) 63 % of control; (dose: 2400.0 mg/kg/injection, schedule: Q04DX003 (sc), vehicle: saline with Tween-80) 68 % of control.
With `COC12[C@@H]3N[C@@H]3CN1C1=C(C(=O)C(NCCSSCCNC3=C(C)C(=O)C4=C(C3=O)C(COC(N)=O)[C@]3(OC)C5N[C@@H]5CN43)=C(C)C1=O)[C@@H]2COC(N)=O` (some centres not stated), the T/C (dose: 3.12 mg/kg/injection, schedule: Q04DX003 (ip), vehicle: DMSO) is 24 % of control and the T/C (dose: 6.25 mg/kg/injection, schedule: Q04DX003 (ip), vehicle: DMSO) was -41 % of control.
Regarding `CC(C)CC(=O)NC(C(=O)NC(C(=O)NC(CC(C)C)C(O)CC(=O)NC(C)C(=O)NC(CC(C)C)C(O)CC(=O)O)C(C)C)C(C)C` (configuration not stated), the T/C was 47 % of control (dose: 150.0 mg/kg/injection, schedule: Q04DX002 (ip), vehicle: Klucel (hydroxypropylcellulose) (HPC)); 85 % of control under setting [1]; 57 % of control (dose: 300.0 mg/kg/injection, schedule: Q04DX002 (ip), vehicle: Klucel (hydroxypropylcellulose) (HPC)); 21 % of control (dose: 600.0 mg/kg/injection, schedule: Q04DX002 (ip), vehicle: Klucel (hydroxypropylcellulose) (HPC)).
Regarding `O=C(CN1CCOCC1)Nc1nc(-c2ccc(Cl)cc2)cs1`, the T/C reads like this: (dose: 150.0 mg/kg/injection, schedule: Q04DX003 (ip), vehicle: other) 96 % of control; (dose: 600.0 mg/kg/injection, schedule: Q04DX003 (ip), vehicle: other) 71 % of control; (dose: 1200.0 mg/kg/injection, schedule: Q04DX003 (ip), vehicle: other) 60 % of control.
Consider `CC(/C=C/C=C/C=C/C=C/C=C/C(O)=C1/C(=O)C(CCC(=O)O)N(C)C1=O)=C\C(C)C(OC1CC(O)C(O)C(C)O1)C(C)C` (configuration not stated), for which the T/C is, setting by setting: (dose: 8.0 mg/kg/injection, schedule: Q04DX003 (ip), vehicle: water) 62 % of control; (dose: 15.88 mg/kg/injection, schedule: Q04DX003 (ip), vehicle: water) 115 % of control; (dose: 16.0 mg/kg/injection, schedule: Q04DX003 (ip), vehicle: water) 57 % of control; (dose: 31.75 mg/kg/injection, schedule: Q04DX003 (ip), vehicle: water) 97 % of control; (dose: 32.0 mg/kg/injection, schedule: Q04DX003 (ip), vehicle: water) 95 % of control; (dose: 62.5 mg/kg/injection, schedule: Q04DX003 (ip), vehicle: water) 63 % of control. Also, the T/C by setting is: (dose: 64.0 mg/kg/injection, schedule: Q04DX003 (ip), vehicle: water) 58 % of control; (dose: 125.0 mg/kg/injection, schedule: Q04DX003 (ip), vehicle: water) 50 % of control.
Take `COc1ccc(CC2C(=O)NC(C)C(=O)N(C)C3Cc4ccc(cc4)Oc4cc(ccc4O)CC(C(=O)NC(C)C(=O)NC(C)C(=O)N2C)N(C)C3=O)cc1` (configuration not stated): the T/C (dose: 8.0 mg/kg/injection, schedule: Q04DX003 (sc), vehicle: saline with Tween-80) was 27 % of control; the T/C (dose: 16.0 mg/kg/injection, schedule: Q04DX003 (sc), vehicle: saline with Tween-80) was 25 % of control; the T/C (dose: 32.0 mg/kg/injection, schedule: Q04DX003 (sc), vehicle: saline with Tween-80) was 3 % of control.
`CS(=O)(=O)CS(=O)(=O)OCCF`: the T/C is, setting by setting: (dose: 6.25 mg/kg/injection, schedule: Q04DX003 (ip), vehicle: saline) 104 % of control; (dose: 12.5 mg/kg/injection, schedule: Q04DX003 (ip), vehicle: saline) 84 % of control; (dose: 25.0 mg/kg/injection, schedule: Q04DX003 (ip), vehicle: saline) 69 % of control.
`CCC12C[N+]3([O-])CCc4c([nH]c5ccccc45)C(C(=O)OC)(c4cc5c(cc4OC)N(C)C4C(O)(C(=O)OC)C(OC(C)=O)C6(CC)C=CCN7CCC54C76)CC(C3)C1O2` (configuration not stated): the T/C runs as follows: (dose: 80.0 mg/kg/injection, schedule: Q04DX003 (sc), vehicle: water) 109 % of control; (dose: 160.0 mg/kg/injection, schedule: Q04DX003 (sc), vehicle: water) 117 % of control; (dose: 320.0 mg/kg/injection, schedule: Q04DX003 (sc), vehicle: water) 123 % of control; (dose: 640.0 mg/kg/injection, schedule: Q04DX003 (sc), vehicle: water) 88 % of control.
As for `c1ccc2c(c1)-c1ccccc1C1NC21` (configuration not stated), the T/C is 60 % of control (dose: 37.5 mg/kg/injection, schedule: Q04DX003 (sc), vehicle: saline with Tween-80) and 30 % of control (dose: 75.0 mg/kg/injection, schedule: Q04DX003 (sc), vehicle: saline with Tween-80).
Take `NC1=NC(=O)N2CC12` (configuration not stated): the T/C (dose: 50.0 mg/kg/injection, schedule: Q04DX003 (sc), vehicle: saline) was 106 % of control; the T/C (dose: 100.0 mg/kg/injection, schedule: Q04DX003 (sc), vehicle: saline) is 116 % of control; the T/C (dose: 200.0 mg/kg/injection, schedule: Q04DX003 (sc), vehicle: saline) was 86 % of control.
For `COc1ccc2c(c1)CCn1c(C)c(COC(=O)NC(C)C)c(COC(=O)NC(C)C)c1-2`, where the note is “dose: 75.0 mg/kg/injection, schedule: Q04DX003 (ip), vehicle: distilled water + Tween-80”, the T/C is -29 % of control.
As to `O=C(NC(Cc1ccc(I)cc1)C(=O)O)c1ccc(Br)cc1` (configuration not stated), the T/C (dose: 37.5 mg/kg/injection, schedule: Q04DX003 (ip), vehicle: sodium bicarbonate) was 92 % of control; the T/C (dose: 150.0 mg/kg/injection, schedule: Q04DX003 (ip), vehicle: sodium bicarbonate) is 87 % of control and 112 % of control; the T/C (dose: 300.0 mg/kg/injection, schedule: Q04DX003 (ip), vehicle: sodium bicarbonate) was 78 % of control.

The values above are taken from PubChem BioAssay AID298 (DTP/NCI, 2004).
